Key:
Type in all cases: cell-based, human
VCAM-1 = assay: TNF-alpha-induced VCAM-1 RNA levels in aortic endothelial cells (Northern blot); conditions: aortic endothelial cells, mean ± SD
Procedure: (§1) Cell culture and treatment of HAEC: Human aortic endothelial cells (HAEC; Cambrex Bio Science Walkersville, Inc., Walkersville, Md.) are cultured in M199 supplemented with 8% FBS, 100 μg/ml heparin, 10 ng/ml endothelial growth factor, 100 μg/ml hypothalamus extract, 2 mM L-glutamine, 1% non-essential amino acids, 100 units/ml penicillin and 100 μg/ml streptomycin. HAEC are subcultured on gelatin pre-coated: 96-well tissue culture plates (Corning Incorporated; Corning, N.Y.) for viability assays and ELISA; 100-mm tissue culture dishes (BD Falcon; Franklin Lakes, N.J.) for Northern blot analyses, Western blot analyses and EMSA; 35-mm tissue culture dishes (Corning) for adhesion assays and on 24-well tissue culture plates for luciferase promoter assays (BD Falcon). All experiments are performed with confluent HAEC monolayers. Unless noted otherwise, HAEC are treated with 25 ng/ml TNF-α, in the absence or presence of C-10 or 0.25% DMSO (carrier control for C-10), for 2-24 hrs. The concentration of DMSO is held constant at 0.25% (unless indicated otherwise) for all of the C-10 conditions.
(§2) HAEC are washed with PBS and total RNA extracted using a commercial kit (RNeasy Mini Kit; Qiagen Inc.; Valencia, Calif.). 12 μg of total RNA per lane is resolved on 1% denaturing agarose gels containing 0.66M formaldehyde. Gels are capillary blotted on Nytran membranes (Schleicher and Schuell Inc.; Keene, N.H.), UV cross-linked, and used for hybridization. The probe for IRF-1 has been previously described (33). The G3PDH cDNA is from Clontech (Palo Alto, Calif.). […]; cDNAs are labeled with α-^32P-dCTP using the Ladderman Labeling Kit (Takara Biochemical Inc.; Berkeley, Calif.) (33). Northern blots are developed using a BAS 1500 Bioimaging Analyzer (Fuji Photo Film Co., Ltd. Medical Systems USA Inc.; Stanford, Calif.). Each experiment is replicated at least twice.

VCAM-1 promoter = assay: TNF-alpha-induced VCAM-1 promoter activity, dual luciferase reporter assay in HAEC; conditions: hVCAM-1(−228 to +12)-luciferase construct, mean ± SD; for inhibition at 5000 µM: Homo sapiens
Procedure: as §1
Dual Luciferase Assay: Four human VCAM-1 promoter deletion constructs of different length, −1641/+12, −288/+12, −228/+12, −85/+12 bp are amplified by PCR from human genomic DNA. Each upstream primer contained a restriction endonuclease Mlu I site located at the 5′-end of the primer. The downstream primer corresponding to the +12 end contained a restriction endonuclease Xho I site at the 5′-end. The PCR products are digested by Mlu I and Xho I (New England Biolabs Inc., Beverly, Mass.) and ligated into a similarly digested pGL3 basic luciferase reporter vector (Promega, Madison, Wis.). Cells are transfected for 24 hrs. with 400 ng of indicated constructs, or pGL3 basic luciferase reporter vector as control, using GeneJuice transfection reagent (Novagen Inc., Madison, Wis.). All cells are also transfected with phRL-TK (Int−) vector (Promega), which contains wildtype Renilla luciferase (Rluc) as an “internal” transfection control. Luciferase assays are conducted with the Dual-Luciferase Reporter Assay System (Promega) on a Lumat LB 9507 tube luminometer. In every experiment, each condition is run in triplicate wells. Each experiment is replicated at least twice.

IRF-1 [1] = assay: TNF-alpha-induced IRF-1 RNA levels (Northern blot); conditions: mean ± SD
Procedure: as §1, §2

IRF-1 [2] = assay: TNF-alpha-induced IRF-1 protein levels (Western blot); conditions: mean ± SD
Procedure: as §1
Western blot analysis: Whole cell lysates are prepared in lysis buffer (150 mM NaCl, 1% IGEPAL CA-630, 50 mM Tris-HCL pH 8.0). 20 μg of lysates are then resolved on 4-12% Bis-Tris PAGE gels under denaturing conditions using the NuPAGE Bis-Tris System (Invitrogen; Carlsbad, Calif.). Proteins are transferred to nitrocellulose membranes, which are probed with IRF-1 antibody. Subsequent binding of HRP conjugated goat anti-rabbit Ab (sc-2054, Santa Cruz Biotechnology, Inc.) is detected using Lumigen PS-3 detection reagents (Amersham Pharmacia Biotech.; Piscataway, N.J.).

Row | Molecule | % INHIBITION of TNF-alpha-induced VCAM-1 RNA levels (VCAM-1; 5.0 mM) | % INHIBITION of TNF-alpha-induced VCAM-1 RNA levels (VCAM-1; 10 :M) | % INHIBITION of TNF-alpha-induced VCAM-1 RNA levels (VCAM-1; 100 :M) | % INHIBITION of TNF-alpha-induced VCAM-1 promoter activity (VCAM-1 promoter; 5.0 mM) | % INHIBITION of TNF-alpha-induced VCAM-1 promoter activity (VCAM-1 promoter; 10 :M) | % INHIBITION of TNF-alpha-induced VCAM-1 promoter activity (VCAM-1 promoter; 100 :M) | % INIHIBITION of TNF-alpha-induced IRF-1 RNA levels (IRF-1 [1]; 5 mM) | % INIHIBITION of TNF-alpha-induced IRF-1 RNA levels (IRF-1 [1]; 10 :M) | % INIHIBITION of TNF-alpha-induced IRF-1 RNA levels (IRF-1 [1]; 100 :M) | % INHIBITION of TNF-alpha-induced IRF-1 Protein levels (IRF-1 [2]; 5 mM) | % INHIBITION of TNF-alpha-induced IRF-1 Protein levels (IRF-1 [2]; 10 :M) | % INHIBITION of TNF-alpha-induced IRF-1 Protein levels (IRF-1 [2]; 100 :M) | inhibition at 5000 µM (VCAM-1 promoter; 5.0 mM) | inhibition at 5000 µM (IRF-1 [2]; Homo sapiens, 5 mM)
1 | 1-Methyl-2-Thiomethyl-5(4)nitroimidazole | 92 ± 5% | 34 ± 6% | 83 ± 10% | 58 ± 6% | 29 ± 6% | 54 ± 10% | 95 ± 12% | 26 ± 12% | 64 ± 16% | 95 ± 12% | 46 ± 15% | 69 ± 10% | – | –
2 | Cc1ccc2[nH]c(S)nc2c1 [2-mercapto-5-methylbenzimididazole, 2-Mercapto-5-methylbenzimidazole] | 11 ± 7% | – | – | – | – | – | – | – | – | – | – | – | – | –
3 | Sc1nc2ccccc2[nH]1 [2-mercaptobenzimidazole, 2-Mercaptobenzimidazole] | 26 ± 10% | 0% | 0% | – | 0% | 0% | – | – | – | – | – | – | 30 ± 4% | –
4 | Sc1ncc[nH]1 [2-mercaptoimidazole, 2-Mercaptoimidazole] | None | None | None | – | – | – | 0% | 0% | 0% | – | – | – | 0% | –
5 | Cc1cnc(S)n1C [5-methylmethimazole, 5-Methylmethimazole] | – | – | – | – | 0% | 0% | – | – | – | – | – | – | 14 ± 8% | –
6 | Cn1ccnc1S [Methimazole, 1-Methylimidazole-2-thiol] | 20 ± 10% | 0% | 0% | – | – | – | 27 ± 12% | 0% | 0% | – | 0% | 0% | 0% | 17 ± 6%
7 | Cn1ccn(C)c1=S [N-methylmethimazole, N-Methylmethimazole] | 47 ± 12% | 0% | 31 ± 10% | – | 6 ± 2% | 44 ± 11% | 75 ± 14% | 0% | 34 ± 15% | – | – | – | 31 ± 3% | –
